# Several values for one entry are separate records, joined by “and”; a condition that tells them apart may be missing. Identical values can stand only once.
# Tests used:
# [1] = test system: chronically injured spinal cord of guinea pigs; conditions: cited from earlier work
# [2] = test system: patients with multiple sclerosis; assay: MS-F204 Phase 3 double-blind placebo-controlled study
# Description: Each of two Phase 3 studies (MS-F203 and MS-F204) was a parallel group, randomized, double-blind study comparing 4-aminopyridine-SR 10 mg b.i.d. with placebo. […] The 12-item Multiple Sclerosis Walking Scale and the Subject Global Impression and Clinician Global Impression were used to validate the clinical meaningfulness of the Timed-Walk response criterion. Secondary efficacy variables included walking speed, Lower Extremity Manual Muscle Test (LEMMT) score and the Ashworth spasticity score, the latter two averaged across eight and six lower extremity muscle groups, respectively. Duration of double-blind treatment on which efficacy was based was 14 weeks in the first study and 8 weeks in the second study. A two-week single blind placebo run-in period preceded the double-blind period.
# In the MS-F204 study, the primary efficacy variable was also Responder status, based on consistent improvement in walking speed on the T25FW. A Timed-Walk Responder was defined as a patient with a faster walking speed for at least three of the first four double-blind visits as compared to the maximum walking speed for any of the pre-treatment visits and the post-treatment visit.
# The secondary efficacy variable was average change from baseline in LEMMT score during the double-blind period, comparing 4-aminopyridine-treated Timed-Walk Responders and Non-Responders separately against the placebo-treated group. Other measures, the MSWS-12, SGI, CGI and Ashworth score, were included only for the purposes of a pooled analysis and comparison with the results of the other two trials.
# This study in this Example was a 39 center, double-blind trial in patients with definite multiple sclerosis of any course type. Participants were randomized to 9 weeks of treatment with 4-aminopyridine (10 mg twice daily; n=120) or placebo (n=119). Response was defined as consistent improvement on the Timed 25-Foot Walk, with percentage of Timed Walk Responders (TWR) in each treatment group as the primary outcome. The last on-treatment visit provided data from 8-12 h post-dose, to examine maintenance of effect.
# Study Design. This was a randomized, double-blind, placebo-controlled trial, as depicted in FIG. 14. Patients underwent screening without receiving any study medication and eligible patients returned one week later (Visit 0, see FIG. 14). Patients then entered a two-week, single-blind, placebo run-in period; Visit 1 occurred at the end of the first week of placebo run-in and Visit 2 at the end of the second week. Patients were instructed to take one blinded tablet (supplied in appropriate quantities at each clinic visit) every 12 hours during the treatment phase.
# At Visit 2, patients were randomized equally to one of two treatment groups, sustained release 4-aminopyridine (4-aminopyridine-SR, 10 mg twice daily) or placebo, using a predetermined, computer-generated randomization schedule, blocked and stratified by treatment-site and pre-numbered treatment kits. Independent statistical, packaging and distribution contractors were used to maintain the blind for all other personnel.
# Following randomization, patients returned every two weeks for evaluation at Visits 3-6. The patients were then instructed to return in one week for Visit 7 and to arrange the timing of their last dose of study medication such that the clinic visit would allow for assessments to be made between 10 and 12 hours after this last dose was taken. Following Visit 7, patients began a two-week period of no treatment, returning for follow-up assessments at Visit 8.
structure (smiles),measurement,setting,value
Nc1ccncc1 [4-aminopyridine],most effective concentration,[1],about 10 μM
same,Mantel-Haenszel Odds Ratio for Timed Walk Response vs placebo,[2]; 10 mg b.i.d.,8.14
same,Timed-Walk Responder rate,[2]; 10 mg b.i.d.,42.9%
same,plasma concentration below which there is a marked reduction in walking speed improvement,[2]; FIG. 27,below 13 ng/mL
same,plasma concentration below which there is a reduction in walking speed improvement,[2]; FIG. 27,below 15 ng/mL
same,average change from baseline in walking speed (Visits 3-6),[2]; Timed Walk Non-Responders,0.12 ft/sec
same,"average improvement in walking speed from baseline, double-blind efficacy period (Visits 3-6)","[2]; Timed Walk Non-responders, 10 mg b.i.d.",6.0%
same,average change from baseline in walking speed (Visits 3-6),[2]; Timed Walk Responders,0.51 ft/sec
same,"improvement from baseline walking speed at Visit 7, first evaluation (last on-treatment visit)",[2]; Timed Walk Responders,25.7%
same,"average improvement in walking speed from baseline, double-blind efficacy period (Visits 3-6)","[2]; Timed Walk Responders, 10 mg b.i.d.",24.7% and 25%
same,mean improvement in walking speed at Visit 7,"[2]; Timed Walk Responders, 9-10 h post dose",25.5%
same,mean improvement in walking speed at Visit 7,"[2]; Timed Walk Responders, 10-11 h post dose",25.3%
same,mean improvement in walking speed at Visit 7,"[2]; Timed Walk Responders, 11-12 h post dose",20.1% and 20%
same,reduction of average plasma concentration at the first assessment at Visit 7,"[2]; human, in vivo, 10 mg b.i.d.",approximately 25%

# — patent publication US20170319562A1, “Compositions and Methods for Extended Therapy with Aminopyridines” (Acorda Therapeutics, Inc., priority 2009, published 2017)
